# Assay type: physicochemical
# Description: Referring to FIGS. 1A and B, differential scanning calorimetry thermographs compare the melting of (1A) lysine and (1B) a lysine-based drug delivery composition, according to this example. […] These observations, further confirmed with Raman spectroscopy and x-ray powder diffraction, are consistent with the nanosizing effect on melting point and thermal stability of crystals due to the increased surface to volume ratio.
smiles,measurement,value
NCCCC[C@H](N)C(=O)O [lysine],onset decomposition temperature (thermal stability),about 257 °C

# — patent publication US9468654B1, “Drug delivery compositions and methods” (WILKES UNIVERSITY, priority 2014, dated 2016)
